Test [1] concerns the target Mitogen-activated protein kinase 3 (Homo sapiens) (UniProt P27361). Put plainly: Inhibition of recombinant human GST-tagged full length MAPK3 expressed in Escherichia coli at 1 uM by Z'LYTE assay relative to control.
In test [2] the target is Epidermal growth factor receptor (Homo sapiens) (UniProt P00533). Briefly: Inhibition of recombinant human GST-tagged EGFR expressed in baculovirus expression system at 1 uM by Z'LYTE assay relative to control.
Test [3] concerns the target Hepatocyte growth factor receptor (Homo sapiens) (UniProt P08581). Briefly: Inhibition of recombinant human His-tagged MET expressed in mammalian expression system at 1 uM by Z'LYTE assay relative to control.
The target of test [4] is Platelet-derived growth factor receptor alpha (Homo sapiens) (UniProt P16234). Briefly: Inhibition of recombinant human GST-tagged PDGFRalpha expressed in baculovirus expression system at 1 uM by Z'LYTE assay relative to control.
Test [5] has as its target ALK tyrosine kinase receptor (Homo sapiens, UniProt Q9UM73). Put plainly: Inhibition of recombinant human GST-tagged ALK expressed in baculovirus expression system by Z'LYTE assay.
For the next test, the system named is HCC78. Briefly: Antiproliferative activity against human HCC78 cells after 48 hrs by MTT assay. As to conditions: HCC78, 48 h. (Tetrazolium dyes change colour on reduction, which living cells bring about.)
Test [6] addresses Fibroblast growth factor receptor 1 (Homo sapiens) (UniProt P11362). Put plainly: Inhibition of recombinant human His-tagged FGFR1 expressed in baculovirus expression system at 1 uM by Z'LYTE assay relative to control.
Test [7] addresses Mast/stem cell growth factor receptor Kit (Homo sapiens) (UniProt P10721). Put plainly: Inhibition of KIT (unknown origin) at 1 uM by Z'LYTE assay relative to control.
Test [8] deals with Tyrosine-protein kinase ABL1 (Homo sapiens) (UniProt P00519). Briefly: Inhibition of recombinant human His-tagged ABL1 expressed in baculovirus expression system at 1 uM by Z'LYTE assay relative to control.
The test system of another test is NCI-H3122. Put plainly: Antiproliferative activity against human NCI-H3122 cells after 48 hrs by MTT assay. The conditions noted are these: NCI-H3122, 48 h.
Test [9] addresses Proto-oncogene tyrosine-protein kinase ROS (Homo sapiens, UniProt P08922). Put plainly: Inhibition of recombinant human GST-tagged ROS1 expressed in baculovirus expression system by Z'LYTE assay.
Test [10] has as its target Serine/threonine-protein kinase B-raf (Homo sapiens) (UniProt P15056). Briefly: Inhibition of recombinant human full length GST-tagged BRAF expressed in baculovirus expression system at 1 uM by Z'LYTE assay relative to control.
Test [11] addresses Leukocyte tyrosine kinase receptor (Homo sapiens) (UniProt P29376). Briefly: Inhibition of recombinant human GST-tagged LTK expressed in baculovirus expression system at 1 uM by Z'LYTE assay relative to control.
Test [12] has as its target Tyrosine-protein kinase JAK2 (Homo sapiens) (UniProt O60674). Briefly: Inhibition of recombinant human GST-tagged JAK2 expressed in baculovirus expression system at 1 uM by Z'LYTE assay relative to control.
Test [13] deals with Insulin-like growth factor 1 receptor (Homo sapiens) (UniProt P08069). Put plainly: Inhibition of recombinant human His-tagged IGF1R expressed in baculovirus expression system at 1 uM by Z'LYTE assay relative to control.
Test [14] deals with CDK2/Cyclin A2 (Homo sapiens) (UniProt P24941+P20248). Briefly: Inhibition of recombinant human full length His-tagged CDK2/cyclin A expressed in baculovirus expression system at 1 uM by Z'LYTE assay relative to control.

Chain of Tyrosine-protein kinase ABL1 (Homo sapiens) (P00519 whole entry): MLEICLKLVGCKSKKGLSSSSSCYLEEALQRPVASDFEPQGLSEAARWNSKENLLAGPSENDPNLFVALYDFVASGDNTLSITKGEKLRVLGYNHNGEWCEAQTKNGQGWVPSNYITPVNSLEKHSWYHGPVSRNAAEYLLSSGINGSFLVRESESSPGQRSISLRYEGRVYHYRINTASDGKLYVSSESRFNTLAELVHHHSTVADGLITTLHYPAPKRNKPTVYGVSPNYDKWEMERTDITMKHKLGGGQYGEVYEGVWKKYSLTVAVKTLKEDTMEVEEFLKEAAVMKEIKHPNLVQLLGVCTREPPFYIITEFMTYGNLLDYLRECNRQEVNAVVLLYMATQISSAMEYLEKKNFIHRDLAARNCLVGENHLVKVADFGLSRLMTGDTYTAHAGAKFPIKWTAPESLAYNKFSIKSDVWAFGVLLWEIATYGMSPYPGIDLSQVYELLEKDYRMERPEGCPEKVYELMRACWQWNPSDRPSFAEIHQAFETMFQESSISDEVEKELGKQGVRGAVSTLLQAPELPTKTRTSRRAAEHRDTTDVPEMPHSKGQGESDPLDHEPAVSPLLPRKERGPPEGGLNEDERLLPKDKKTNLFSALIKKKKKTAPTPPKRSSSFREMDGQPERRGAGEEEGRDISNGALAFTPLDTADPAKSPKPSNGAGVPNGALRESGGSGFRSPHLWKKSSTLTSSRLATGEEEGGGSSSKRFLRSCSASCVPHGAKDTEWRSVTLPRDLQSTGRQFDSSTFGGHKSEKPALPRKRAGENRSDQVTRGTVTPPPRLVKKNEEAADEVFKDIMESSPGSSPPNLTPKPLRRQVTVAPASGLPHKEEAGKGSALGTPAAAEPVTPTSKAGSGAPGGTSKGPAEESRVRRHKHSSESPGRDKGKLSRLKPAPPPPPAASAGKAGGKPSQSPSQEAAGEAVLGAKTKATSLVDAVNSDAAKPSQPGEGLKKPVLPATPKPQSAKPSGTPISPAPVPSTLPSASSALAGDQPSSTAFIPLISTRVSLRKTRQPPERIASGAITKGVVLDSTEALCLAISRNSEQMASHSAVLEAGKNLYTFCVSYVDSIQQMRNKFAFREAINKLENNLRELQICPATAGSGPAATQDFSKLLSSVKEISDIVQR
Chain of Mitogen-activated protein kinase 3 (Homo sapiens) (P27361 whole entry): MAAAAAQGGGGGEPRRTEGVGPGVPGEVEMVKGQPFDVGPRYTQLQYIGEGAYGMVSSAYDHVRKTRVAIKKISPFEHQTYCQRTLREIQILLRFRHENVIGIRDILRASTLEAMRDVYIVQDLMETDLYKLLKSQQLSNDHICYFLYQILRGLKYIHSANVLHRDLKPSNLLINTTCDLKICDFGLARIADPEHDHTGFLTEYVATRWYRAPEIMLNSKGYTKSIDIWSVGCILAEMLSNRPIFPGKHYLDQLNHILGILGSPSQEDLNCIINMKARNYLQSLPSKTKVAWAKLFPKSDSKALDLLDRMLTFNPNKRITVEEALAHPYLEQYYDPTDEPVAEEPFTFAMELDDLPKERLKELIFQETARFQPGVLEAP
Chain of Platelet-derived growth factor receptor alpha (Homo sapiens) (P16234 whole entry): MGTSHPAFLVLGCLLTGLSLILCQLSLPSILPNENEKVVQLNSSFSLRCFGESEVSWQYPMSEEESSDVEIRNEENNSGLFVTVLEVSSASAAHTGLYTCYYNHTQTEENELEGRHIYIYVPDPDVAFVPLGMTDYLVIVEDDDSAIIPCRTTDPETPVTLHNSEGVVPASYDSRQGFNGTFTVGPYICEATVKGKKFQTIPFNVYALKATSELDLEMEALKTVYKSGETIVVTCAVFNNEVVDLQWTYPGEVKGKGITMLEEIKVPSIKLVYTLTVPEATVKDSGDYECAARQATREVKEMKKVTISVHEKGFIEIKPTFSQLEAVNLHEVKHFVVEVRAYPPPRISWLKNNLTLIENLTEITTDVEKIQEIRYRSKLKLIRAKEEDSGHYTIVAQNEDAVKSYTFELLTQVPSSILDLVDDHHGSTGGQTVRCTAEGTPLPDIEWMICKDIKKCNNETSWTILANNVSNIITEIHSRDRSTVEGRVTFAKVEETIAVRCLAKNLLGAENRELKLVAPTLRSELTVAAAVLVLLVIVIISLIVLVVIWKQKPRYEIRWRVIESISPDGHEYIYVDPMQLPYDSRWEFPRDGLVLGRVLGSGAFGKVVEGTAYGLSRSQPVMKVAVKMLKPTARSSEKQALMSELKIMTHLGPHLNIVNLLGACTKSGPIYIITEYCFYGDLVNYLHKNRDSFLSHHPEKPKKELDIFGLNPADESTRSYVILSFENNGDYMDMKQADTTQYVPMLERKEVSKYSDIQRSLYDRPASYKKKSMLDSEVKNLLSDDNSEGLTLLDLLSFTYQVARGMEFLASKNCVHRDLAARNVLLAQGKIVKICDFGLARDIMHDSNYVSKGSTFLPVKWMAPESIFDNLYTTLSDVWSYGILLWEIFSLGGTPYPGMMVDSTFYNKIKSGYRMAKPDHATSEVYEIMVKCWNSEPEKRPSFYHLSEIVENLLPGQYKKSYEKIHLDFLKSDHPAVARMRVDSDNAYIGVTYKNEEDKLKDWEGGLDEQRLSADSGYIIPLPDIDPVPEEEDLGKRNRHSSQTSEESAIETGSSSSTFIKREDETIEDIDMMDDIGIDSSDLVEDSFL
Chain of Epidermal growth factor receptor (Homo sapiens) (P00533 whole entry): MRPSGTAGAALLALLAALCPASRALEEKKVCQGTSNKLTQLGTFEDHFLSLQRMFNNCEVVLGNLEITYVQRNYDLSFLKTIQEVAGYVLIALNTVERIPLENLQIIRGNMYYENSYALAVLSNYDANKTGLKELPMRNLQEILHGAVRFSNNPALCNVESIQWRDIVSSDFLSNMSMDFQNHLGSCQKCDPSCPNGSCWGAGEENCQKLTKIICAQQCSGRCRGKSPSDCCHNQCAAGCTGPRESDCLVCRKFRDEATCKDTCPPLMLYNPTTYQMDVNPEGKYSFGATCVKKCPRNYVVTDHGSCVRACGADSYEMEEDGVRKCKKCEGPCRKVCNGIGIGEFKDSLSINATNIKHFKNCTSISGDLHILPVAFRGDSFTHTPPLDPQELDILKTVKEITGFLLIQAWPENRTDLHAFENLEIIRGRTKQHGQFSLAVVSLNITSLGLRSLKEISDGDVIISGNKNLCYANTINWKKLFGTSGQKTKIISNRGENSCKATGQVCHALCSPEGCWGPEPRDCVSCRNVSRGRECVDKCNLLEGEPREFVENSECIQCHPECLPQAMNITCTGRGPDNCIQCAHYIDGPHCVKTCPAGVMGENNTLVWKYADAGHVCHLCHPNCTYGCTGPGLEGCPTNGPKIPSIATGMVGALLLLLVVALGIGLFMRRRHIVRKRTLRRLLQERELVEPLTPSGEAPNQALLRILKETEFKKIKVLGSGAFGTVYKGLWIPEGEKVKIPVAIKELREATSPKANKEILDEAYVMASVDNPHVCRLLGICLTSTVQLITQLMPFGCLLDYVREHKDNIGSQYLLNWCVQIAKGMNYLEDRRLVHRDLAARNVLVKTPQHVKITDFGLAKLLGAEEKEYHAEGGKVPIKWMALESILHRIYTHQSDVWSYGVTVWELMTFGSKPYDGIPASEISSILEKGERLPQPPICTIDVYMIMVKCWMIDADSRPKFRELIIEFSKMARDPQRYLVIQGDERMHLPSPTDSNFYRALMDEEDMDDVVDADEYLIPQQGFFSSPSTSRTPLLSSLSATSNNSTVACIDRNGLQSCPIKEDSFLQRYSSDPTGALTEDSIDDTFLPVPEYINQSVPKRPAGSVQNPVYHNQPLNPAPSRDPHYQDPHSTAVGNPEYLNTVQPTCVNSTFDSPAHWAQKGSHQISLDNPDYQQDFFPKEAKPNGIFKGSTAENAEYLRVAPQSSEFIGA
Chain of Fibroblast growth factor receptor 1 (Homo sapiens) (P11362 22-822 limits assumed): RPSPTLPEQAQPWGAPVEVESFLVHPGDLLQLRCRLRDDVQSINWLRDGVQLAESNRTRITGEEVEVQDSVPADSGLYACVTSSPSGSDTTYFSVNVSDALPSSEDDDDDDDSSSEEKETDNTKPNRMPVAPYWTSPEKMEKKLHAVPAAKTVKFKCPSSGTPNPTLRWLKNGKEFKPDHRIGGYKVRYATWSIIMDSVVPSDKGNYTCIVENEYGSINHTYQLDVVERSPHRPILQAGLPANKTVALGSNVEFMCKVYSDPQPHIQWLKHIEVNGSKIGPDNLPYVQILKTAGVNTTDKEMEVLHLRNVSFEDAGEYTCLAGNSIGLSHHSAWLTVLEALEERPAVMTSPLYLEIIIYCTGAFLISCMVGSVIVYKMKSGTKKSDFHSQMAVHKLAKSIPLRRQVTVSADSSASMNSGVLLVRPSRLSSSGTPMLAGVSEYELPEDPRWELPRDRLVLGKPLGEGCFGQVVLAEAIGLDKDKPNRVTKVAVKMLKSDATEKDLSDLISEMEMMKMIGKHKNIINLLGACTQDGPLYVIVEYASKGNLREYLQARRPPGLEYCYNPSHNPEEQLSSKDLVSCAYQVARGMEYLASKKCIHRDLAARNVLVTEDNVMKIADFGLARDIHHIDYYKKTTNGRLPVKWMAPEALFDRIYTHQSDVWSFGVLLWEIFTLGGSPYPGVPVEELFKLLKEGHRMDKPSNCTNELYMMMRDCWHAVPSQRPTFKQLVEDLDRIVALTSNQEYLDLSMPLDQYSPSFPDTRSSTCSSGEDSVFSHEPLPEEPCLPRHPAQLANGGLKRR

Regarding `Cc1ccc(CNC(=O)c2cccc(C(C)Oc3ccnc(Nc4cnn(C5CCN(C)CC5)c4)c3)c2)cc1` (stereo unspecified), the inhibition (usually the share of the control response that was lost under treatment) was 8% in test [1]; 1% in [2]; 3% in test [3]; 6% in test [4]; 11% in test [6]; 2% in test [7]. For the same compound, the inhibition in test [8] was 9%; in test [10], 15%; in test [11], 9%; in test [12], 12%; in [13], 7%; in test [14] it was 1%. In addition, the IC50 (usually the concentration needed to halve the response being measured) in [5] turned out to be 3.1 µM; in the test on HCC78, 8.1 µM; in the test on NCI-H3122, 8.9 µM; in test [9], 0.44 µM.

The record behind these values is ChEMBL document CHEMBL4138202, “Design, synthesis, biological evaluation and molecular modeling of novel 2-amino-4-(1-phenylethoxy) pyridine derivatives as potential ROS1 inhibitors” (Eur J Med Chem, 2018).
